Test results taken from patent US7964598B2 (The J. David Gladstone Institutes, priority 1995, dated 2011).
“Also recorded” adds a separate entry of the source.

Columns and labels:
[1] = system: HepG2 cells; assay: Cell association of 125I-apoE-enriched β-VLDL by HepG2 cells; type: cell-based, human
[2] = system: Neuro-2a cells; assay: Metabolism of apoE-enriched β-VLDL by Neuro-2a cells; type: cell-based, mouse; conditions: for enhancement of cell association of β-VLDL: 125I-β-VLDL enriched with apoE; for cell association: purified 125I-apoE-enriched β-VLDL; for increase of cellular cholesterol content: β-VLDL enriched with apoE, compared with β-VLDL alone
Method: Rabbit β-VLDL (d<1.006 g/ml) were isolated from the plasma of New Zealand White rabbits fed a high-fat, high-cholesterol diet for 4 days. The ratio of cholesterol to protein in this β-VLDL ranged from ˜15 to 20:1. Human apoE-enriched β-VLDL were prepared by incubating apoE with β-VLDL at 37° C. for 1 h. For some experiments, the apoE-enriched β-VLDL were reisolated by fast-performance liquid chromatography as follows. Either ^125I-β-VLDL and unlabeled apoE or ^125I-apoE and unlabeled β-VLDL were mixed in a 1:1.5 ratio of β-VLDL protein to apoE and incubated at 37° C. for 1 h. The mixture (250 μl) was then fractionated by chromatography on a Superose 6 column (Pharmacia Fine Chemicals, Uppsala, Sweden, 10/50 HR). The flow rate was 0.5 ml/min, and 0.5 ml fractions were collected. The elution profile was monitored by quantitation of ^125I and cholesterol.
Cultured cells were grown to ˜100% confluence, washed twice with fresh serum-free medium, and incubated at 37° C. with apoE-enriched β-VLDL. Before addition to the cells, the β-VLDL and apoE were incubated together (5 and 7.5 μg of protein, respectively, unless otherwise indicated) for 1 h at 37° C. Some cells were incubated with 50 μM chloroquine, and inhibitor of lysosomal protease, at 37° C. for 2 h before addition of the apoE-enriched β-VLDL. At the times indicated, the cells were placed on ice, and the medium was assayed for protein degradation products. For the cell association studies, Neuro-2a cells were washed five times on ice with 0.1 M PBS containing 0.2% bovine serum albumin and once with 0.1 M PBS. Cell-associated ligand represents both bound and internalized material. The fibroblasts were washed three times with DMEM-Hepes on ice and incubated with 10 mM suramin at 4° C. for 30 min to remove surface-bound ligand. The radioactivity remaining within the cells represents that which was “internalized.” After washing, the cells were dissolved in 0.1 N NaOH for measurement of radioactivity and protein concentration.
The cells were then washed and solubilized with 0.1 N NaOH, and the cell-associated DiI, which is proportional to the total amount of lipoprotein metabolized (bound, internalized, and degraded), was assayed.

[3] = system: wild-type CHO cells; assay: Pulse chase of 125I-apoE+β-VLDL, wild-type CHO cells; type: cell-based, Chinese hamster; conditions: for Total: recovery in the fractions; for bound to the cells at 4° C. (zero time): wild-type CHO cells
Method: (§1) Cultured cells were grown to ˜100% confluence, placed on ice, and washed twice with cold DMEM-Hepes. The cells were then incubated with ^125I-apoE+β-VLDL at 4° C. for 1 h to allow for cell-surface binding (zero time bound ligand). Cells were rinsed three times with cold F12 medium to remove unbound ligands. Prewarmed F12 medium was added; and the cells were incubated at 37° C. for the times indicated. At each point, the cells were again placed on ice, and the culture medium was collected. To 0.5 ml of medium was added 0.4 ml of 0.2% bovine serum albumin (Sigma) and 0.4 ml of 50% trichloroacetic acid (TCA). The medium was then incubated at 4° C. for 30 min and centrifuged at 3,000 rpm for 10 min. The supernatant was collected for ^125I-apoE degradation assay, and the pellet was counted as TCA-precipitable intact ^125I-apoE. The cells were washed once with cold DMEM-Hepes, incubated with 10 mM suramin on ice in a cold room for 30 min, and then dissolved in 0.1 N NaOH. Cellular radioactivity (internalized apoE) was measured with a gamma counter, and protein concentration was determined by Lowry's method.
To evaluate these possibilities, we conducted a modified A pulse-chase@ study in which CHO cells were incubated with ^125I-apoE-enriched β-VLDL for 1 h at 4° C., washed to remove unbound lipoproteins, and then warmed to 37° C. for various times to follow internalization, degradation, and retention (see Materials and Methods). At the specific times, the medium was removed for analysis of both degradation products (degraded apoE) and TCA-precipitable proteins (released intact apoE), and the cells were washed with suramin (suramin-releasable apoE) and then counted (internalized apoE).

[4] = system: HSPG-deficient CHO cells; assay: Pulse chase of 125I-apoE+β-VLDL, HSPG-deficient CHO cells; type: cell-based, Chinese hamster
Method: as §1

[5] = system: Neuro-2a cells; assay: Aβ-induced lysosomal leakage (cytosolic β-hexosaminidase); type: cell-based, mouse

Molecule | cell association ([1]; 4 hours) | cell association ([1]; 8 hours) | enhancement of cell association of β-VLDL [2] | cell association ([2]; 2 h) | cell association ([2]; 4 h) | increase of cellular cholesterol content [2] | Total ([3]; 30 min) | Degraded ([3]; 30 min at 37° C.) | Internalized (retained) ([3]; 30 min at 37° C.) | Suramin-releasable (cell surface) ([3]; 30 min at 37° C.) | TCA-precipitable (released intact) ([3]; 30 min at 37° C.) | Total ([3]; 60 min) | Degraded ([3]; 60 min at 37° C.) | Internalized (retained) ([3]; 60 min at 37° C.) | Suramin-releasable (cell surface) ([3]; 60 min at 37° C.) | TCA-precipitable (released intact) ([3]; 60 min at 37° C.) | Total ([3]; 120 min) | Degraded ([3]; 120 min at 37° C.) | Internalized (retained) ([3]; 120 min at 37° C.) | Suramin-releasable (cell surface) ([3]; 120 min at 37° C.) | also measured
apoE4: human apolipoprotein E4 isoform, also iodinated | 51 ± 10 ng/mg cell protein | 683 ± 6 ng/mg cell protein | ~1.7 fold | 39 ng/mg of cell protein | 65 ng/mg of cell protein | ~1.7 fold | 368 ng/mg cell protein | 12 ng/mg cell protein | 84 ng/mg cell protein | 27 ng/mg cell protein | 245 ng/mg cell protein | 338 ng/mg cell protein | 35 ng/mg cell protein | 55 ng/mg cell protein | 10 ng/mg cell protein | 238 ng/mg cell protein | 305 ng/mg cell protein | 43 ng/mg cell protein | 27 ng/mg cell protein | 10 ng/mg cell protein | TCA-precipitable (released intact) ([3]; 120 min at 37° C.): 225 ng/mg cell protein; bound to the cells at 4° C. (zero time) [3]: 378 ng/mg of cell protein; bound to the cells [4]: 75 ng/mg of cell protein
O=S(=O)([O-])c1ccc2c(c1)c(Nc1ccc(S(=O)(=O)O)cc1)cc1c2nc2ccccc2[n+]1-c1ccccc1 [GIND-25, azocarmine-G] |  |  |  |  |  |  |  |  |  |  |  |  |  |  |  |  |  |  |  |  | lysosomal leakage, cells with medium alone or medium containing apoE3 plus Aβ1-42 [5]: no significant effect; apoE4 potentiation of Aβ-induced lysosomal leakage ([5]; 5 μM, apoE4 conditioned medium, Aβ1-42 20 μM): block; also recorded: abolish
apoE3: human apolipoprotein E3 isoform, also iodinated | 1062 ± 171 ng/mg cell protein | 1466 ± 38 ng/mg cell protein | ~1.7 fold | 58 ng/mg of cell protein | 101 ng/mg of cell protein | ~1.5 fold | 399 ng/mg cell protein | 15 ng/mg cell protein | 157 ng/mg cell protein | 45 ng/mg cell protein | 182 ng/mg cell protein | 377 ng/mg cell protein | 34 ng/mg cell protein | 123 ng/mg cell protein | 39 ng/mg cell protein | 181 ng/mg cell protein | 367 ng/mg cell protein | 45 ng/mg cell protein | 78 ng/mg cell protein | 12 ng/mg cell protein | TCA-precipitable (released intact) ([3]; 120 min at 37° C.): 232 ng/mg cell protein; bound to the cells at 4° C. (zero time) [3]: 399 ng/mg of cell protein; bound to the cells [4]: 77 ng/mg of cell protein
